Data published in patent US8513462B2, “Pesticides and uses thereof” (Dow AgroSciences LLC, priority 2007, dated 2013).

System: green peach aphid (Myzus persicae)
Assay: Insecticidal test for green peach aphid in foliar spray assay
Type: in vivo
Conditions: 72 h, foliar spray on cabbage, Corrected % Control (Abbott) after three days, read-out: Rating against green peach aphid on cabbage (foliar spray)
Description: Squash seedlings with fully expanded cotyledon leaves were trimmed to one cotyledon per plant and infested with cotton aphid (wingless adults and nymphs) 1 day prior to chemical application. Each plant was examined before chemical application to ensure uniform infestation (ca. 30-70 aphids per plant). Compounds (2 mg) were dissolved in 2 ml of acetone:methanol (1:1) solvent, forming stock solutions of 1000 ppm. The stock solutions were diluted 5× with 0.025% Tween 20 in H2O to obtain a solution at 200 ppm. A hand-held Devilbiss aspirator type sprayer was used to apply the spray solutions until runoff to both sides of the squash cotyledon leaves. Four plants (4 replications) were used for each compound. Reference plants (solvent check) were sprayed with the diluent only. Treated plants were held in a holding room for 3 days at approximately 23° C. and 40% RH before the number of live aphids on each plant was recorded. Insecticidal activity was measured by Corrected % Control using Abbott's correction formula and presented in Table 1-Activity: Corrected % Control=100*(X−Y)/X • where X=No. of live aphids on solvent check plants • Y=No. of live aphids on treated plants Results are shown in Table 7. Insecticidal Test for Green Peach Aphid (Myzus persicae) in Foliar Spray Assay Cabbage seedlings grown in 3-inch pots, with 2-3 small (3-5 cm) true leaves, were used as test substrate. The seedlings were infested with 20-50 green peach aphids (wingless adult and nymph) 1-2 days prior to chemical application. Four seedlings were used for each treatment. Compounds (2 mg) were dissolved in 2 ml of acetone:methanol (1:1) solvent, forming stock solutions of 1000 ppm. The stock solutions were diluted 5× with 0.025% Tween 20 in H2O to obtain a solution at 200 ppm. A hand-held Devilbiss aspirator sprayer was used for spraying a solution to both sides of cabbage leaves until runoff. Reference plants (solvent check) were sprayed with the diluent only. Treated plants were held in a holding room for three days at approximately 23° C. and 40% RH prior to grading. Evaluation was conducted by counting the number of live aphids per plant under a microscope. Insecticidal activity was measured by using Abbott's correction formula: Corrected % Control=100*(X−Y)/X • where X=No. of live aphids on solvent check plants • Y=No. of live aphids on treated plants

| Structure (SMILES) | pest or weed control at 200 ppm [%] |
| --- | --- |
| CC(c1ccc(C(F)(F)F)nc1)S(C)(=O)=Nc1ncc(Cc2ccccc2)s1 (racemic) [Compound 61, 5-{1-[(5-benzyl-1,3-thiazol-2-yl)(methyl)sulfonimidoyl]ethyl}-2-(trifluoromethyl)pyridine] | 80 to 100 |
| CC(c1ccc(C(F)(F)F)nc1)S(C)(=O)=Nc1nc2c(s1)CCc1nonc1-2 (racemic) [Compound 65, 7-[(methyl(oxo){1-[6-(trifluoromethyl)-3-pyridinyl]ethyl}-λ^6-sulfanylidene)amino]-4,5-dihydro[1,3]thiazolo[4,5-e][2,1,3]-benzoxadiazole] | 80 to 100 |
| CC(c1ccc(C(F)(F)F)nc1)S(C)(=O)=Nc1nnc(C(F)F)s1 (racemic) [Compound 69, 5-{1-[[5-(difluoromethyl)-1,3,4-thiadiazol-2-yl](methyl)sulfonimidoyl]ethyl}-2-(trifluoromethyl)pyridine] | 80 to 100 |
| CC(c1ccc(C(F)(F)F)nc1)S(C)(=O)=Nc1cc(F)ccn1 (centres unmarked) [Compound 3, 3-[1-ethyl(N-(2-(4-fluoro)pyridine)-sulfoximinyl)(methyl)]-6-trifluoromethylpyridine] | 80 to 100 |
| CC(c1ccc(C(F)(F)F)nc1)S(C)(=O)=Nc1ncccc1F (centres unmarked) [Compound 9] | 80 to 100 |
| CC(c1ccc(C(F)(F)F)nc1)S(C)(=O)=Nc1cccc(F)n1 (centres unmarked) [Compound 10] | < 80 |
| CC(c1ccc(C(F)(F)F)nc1)S(C)(=O)=Nc1cccc(C(F)(F)F)n1 (centres unmarked) [Compound 11] | < 80 |
| Cc1csc(N=S(C)(=O)C(C)c2ccc(C(F)(F)F)nc2)n1 (centres unmarked) [Compound 14] | < 80 |
| CC(c1ccc(C(F)(F)F)nc1)S(C)(=O)=Nc1nc(-c2ccccc2)cs1 (centres unmarked) [Compound 15] | 80 to 100 |
| CC(c1ccc(C(F)(F)F)nc1)S(C)(=O)=Nc1ncc(C#N)s1 (centres unmarked) [Compound 16] | 80 to 100 |
| CC(c1ccc(C(F)(F)F)nc1)S(C)(=O)=Nc1ccsc1[N+](=O)[O-] (centres unmarked) [Compound 17] | < 80 |
| CCOC(=O)c1csc(N=S(C)(=O)C(C)c2ccc(C(F)(F)F)nc2)n1 (centres unmarked) [Compound 18] | 80 to 100 |
| Cc1ccc(-c2csc(N=S(C)(=O)C(C)c3ccc(C(F)(F)F)nc3)n2)cc1 (centres unmarked) [Compound 19, 5-{1-[methyl(4-(4-methylphenyl)-1,3-thiazol-2-yl)sulfonimidoyl]ethyl}-2-(trifluoromethyl)pyridine] | 80 to 100 |
| CC(c1ccc(C(F)(F)F)nc1)S(C)(=O)=Nc1nc(-c2ccc(Cl)c(Cl)c2)cs1 (centres unmarked) [Compound 20] | 80 to 100 |
| CC(c1ccc(C(F)(F)F)nc1)S(C)(=O)=Nc1nc(-c2cccc(Cl)c2)cs1 (centres unmarked) [Compound 21] | 80 to 100 |
| CC(c1ccc(C(F)(F)F)nc1)S(C)(=O)=Nc1nc(-c2ccc(Cl)cc2)cs1 (centres unmarked) [Compound 22] | 80 to 100 |
| COc1ccc(-c2csc(N=S(C)(=O)C(C)c3ccc(C(F)(F)F)nc3)n2)cc1 (centres unmarked) [Compound 23] | 80 to 100 |
| CC(c1ccc(C(F)(F)F)nc1)S(C)(=O)=Nc1nc2ccccc2s1 (centres unmarked) [Compound 25, 3-[1-ethyl(N-(2-benzothiazole)-sulfoximinyl)(methyl)]-6-trifluoromethylpyridine] | < 80 |
| CC(c1ccc(C(F)(F)F)nc1)S(C)(=O)=Nc1nc(C(F)(F)F)cs1 (centres unmarked) [Compound 26, 3-[1-ethyl(N-(2-(4-trifluoromethyl)thiazole)-sulfoximinyl)(methyl)]-6-trifluoromethylpyridine] | 80 to 100 |
| CC(c1ccc(C(F)(F)F)nc1)S(C)(=O)=Nc1nc(-c2ccc(F)cc2)cs1 (centres unmarked) [Compound 27, 5-{1-[methyl(4-(4-fluorophenyl)-1,3-thiazol-2-yl)sulfonimidoyl]ethyl}-2-(trifluoromethyl)pyridine] | 80 to 100 |
| CCc1csc(N=S(C)(=O)C(C)c2ccc(C(F)(F)F)nc2)n1 (centres unmarked) [Compound 28] | 80 to 100 |
| CC(c1ccc(C(F)(F)F)nc1)S(C)(=O)=Nc1nc(C(C)(C)C)cs1 (centres unmarked) [Compound 29] | 80 to 100 |
| CC(c1ccc(C(F)(F)F)nc1)S(C)(=O)=Nc1nc(C(F)(F)C(F)(F)F)cs1 (centres unmarked) [Compound 30] | 80 to 100 |

| Structure (SMILES) | pest or weed control at 200 ppm [%] |
| --- | --- |
| CCOC(C)(C)c1csc(N=S(C)(=O)C(C)c2ccc(C(F)(F)F)nc2)n1 (centres unmarked) [Compound 31] | 80 to 100 |
| CC(c1ccc(C(F)(F)F)nc1)S(C)(=O)=Nc1nc(-c2ccncc2)cs1 (centres unmarked) [Compound 34] | 80 to 100 |
| Cc1ccsc1-c1nc(N=S(C)(=O)C(C)c2ccc(C(F)(F)F)nc2)sc1C (centres unmarked) [Compound 36] | 80 to 100 |
| CC(c1ccc(C(F)(F)F)nc1)S(C)(=O)=Nc1nc(-c2csc3ccccc23)cs1 (centres unmarked) [Compound 40] | 80 to 100 |
| CC(c1ccc(C(F)(F)F)nc1)S(C)(=O)=Nc1nc(-c2cc(-c3ccc(Cl)cc3)no2)cs1 (centres unmarked) [Compound 42] | 80 to 100 |
| CC(c1ccc(C(F)(F)F)nc1)S(C)(=O)=Nc1nc(-c2ccc3c(c2)OCO3)cs1 (centres unmarked) [Compound 47] | 80 to 100 |
| CC(c1ccc(C(F)(F)F)nc1)S(C)(=O)=Nc1nc(-c2ccc([N+](=O)[O-])cc2)cs1 (centres unmarked) [Compound 49] | 80 to 100 |
| Cc1cc(-c2csc(N=S(C)(=O)C(C)c3ccc(C(F)(F)F)nc3)n2)ccc1Cl (centres unmarked) [Compound 50] | 80 to 100 |
| COc1ccc(-c2csc(N=S(C)(=O)C(C)c3ccc(C(F)(F)F)nc3)n2)c(OC)c1 (centres unmarked) [Compound 53] | 80 to 100 |
| COc1ccc(-c2csc(N=S(C)(=O)Cc3ccc(Cl)nc3)n2)cc1 (centres unmarked) [Compound 57, 5-{[methyl[4-(4-methoxyphenyl)-1,3-thiazol-2-yl]sulfonimidoyl]methyl}-2-chloropyridine] | < 80 |
| CCCCC(c1ccc(C(F)(F)F)nc1)S(C)(=O)=Nc1nc(-c2ccc(OC)cc2)cs1 (centres unmarked) [Compound 60, 5-{1-[methyl(4-(4-methoxyphenyl)-1,3-thiazol-2-yl)sulfonimidoyl]pentyl}-2-(trifluoromethyl)pyridine] | < 80 |
| CC(c1ccc(C(F)(F)F)nc1)S(C)(=O)=Nc1ncc(-c2ccccc2)s1 (centres unmarked) [Compound 62, 5-{1-[methyl(5-phenyl-1,3-thiazol-2-yl)sulfonimidoyl]ethyl}-2-(trifluoromethyl)pyridine] | 80 to 100 |
| Cc1cnc(N=S(C)(=O)C(C)c2ccc(C(F)(F)F)nc2)s1 (centres unmarked) [Compound 63, 5-{1-[methyl(5-methyl-1,3-thiazol-2-yl)sulfonimidoyl]ethyl}-2-(trifluoromethyl)pyridine] | 80 to 100 |
| CSCc1cnc(N=S(C)(=O)C(C)c2ccc(C(F)(F)F)nc2)s1 (centres unmarked) [Compound 64, 5-[1-(methyl{5-[(methylsulfanyl)methyl]-1,3-thiazol-2-yl}sulfonimidoyl)ethyl]-2-(trifluoromethyl)pyridine] | 80 to 100 |
| Cc1sc(N=S(C)(=O)C(C)c2ccc(C(F)(F)F)nc2)nc1-c1ccccc1 (centres unmarked) [Compound 66, 5-{1-[methyl(5-methyl-4-phenyl-1,3-thiazol-2-yl)sulfonimidoyl]ethyl}-2-(trifluoromethyl)pyridine] | 80 to 100 |
| Cc1nc(N=S(C)(=O)C(C)c2ccc(C(F)(F)F)nc2)sc1C (centres unmarked) [Compound 67, 5-{1-[(4,5-dimethyl-1,3-thiazol-2-yl)(methyl)sulfonimidoyl]ethyl}-2-(trifluoromethyl)pyridine] | 80 to 100 |
| Cc1sc(N=S(C)(=O)C(C)c2ccc(C(F)(F)F)nc2)nc1-c1ccc(Br)cc1 (centres unmarked) [Compound 68, 5-{1-[[4-(4-bromophenyl)-5-methyl-1,3-thiazol-2-yl](methyl)sulfonimidoyl]ethyl}-2-(trifluoromethyl)pyridine] | 80 to 100 |
| CCc1coc(N=S(C)(=O)C(C)c2ccc(C(F)(F)F)nc2)n1 (centres unmarked) [Compound 70, 5-{1-[methyl(4-ethyl-1,3-oxazol-2-yl)sulfonimidoyl]ethyl}-2-(trifluoromethyl)pyridine] | 80 to 100 |
| Cc1coc(N=S(C)(=O)C(C)c2ccc(C(F)(F)F)nc2)n1 (centres unmarked) [Compound 71] | 80 to 100 |
| Cc1nc(N=S(C)(=O)C(C)c2ccc(C(F)(F)F)nc2)oc1C (centres unmarked) [Compound 72] | < 80 |
| Cc1oc(N=S(C)(=O)C(C)c2ccc(C(F)(F)F)nc2)nc1-c1ccc(Br)cc1 (centres unmarked) [Compound 73] | 80 to 100 |
| CC(c1ccc(C(F)(F)F)nc1)S(C)(=O)=Nc1nc(-c2ccccc2)co1 (centres unmarked) [Compound 74] | < 80 |
| O=S1(=Nc2nc(C(F)(F)F)cs2)CCCC1c1ccc(Cl)nc1 (centres unmarked) [Compound 79] | 80 to 100 |

System: not given
Assay: not given
Conditions: not given

| Structure (SMILES) | melting point [°C] |
| --- | --- |
| CC(c1ccc(C(F)(F)F)nc1)S(C)(=O)=Nc1nc(-c2ccccc2)cs1 (centres unmarked) [Compound 15] | 88 to 93 |
| CC(c1ccc(C(F)(F)F)nc1)S(C)(=O)=Nc1nc(-c2ccc(F)cc2)cs1 (centres unmarked) [Compound 27, 5-{1-[methyl(4-(4-fluorophenyl)-1,3-thiazol-2-yl)sulfonimidoyl]ethyl}-2-(trifluoromethyl)pyridine] | 89 to 94 |
| CC(c1ccc(C(F)(F)F)nc1)S(C)(=O)=Nc1nc(C(C)(C)C)cs1 (centres unmarked) [Compound 29] | 144 to 148 |
| CC(c1ccc(C(F)(F)F)nc1)S(C)(=O)=Nc1nc(C(F)(F)C(F)(F)F)cs1 (centres unmarked) [Compound 30] | 95 to 100 |
